Test [1] addresses T1, IRAK4 (Homo sapiens (Human), UniProt Q9NWZ3). Briefly: IRAK4 Degradation HiBiT Assay. Particulars: multiple runs, HiBiT-tagged Jurkat cells, 4 hrs; for DC50: read-out: Cellular IRAK4 HiBiT: DC50, Table 5; for Dmax: Jurkat, read-out: Cellular IRAK4 HiBiT: Dmax, Table 5. A general note: With HiBiT, luminescence reflects the tagged protein that the partner subunit can reach.
Target sequence in this assay (Q9NWZ3 whole entry): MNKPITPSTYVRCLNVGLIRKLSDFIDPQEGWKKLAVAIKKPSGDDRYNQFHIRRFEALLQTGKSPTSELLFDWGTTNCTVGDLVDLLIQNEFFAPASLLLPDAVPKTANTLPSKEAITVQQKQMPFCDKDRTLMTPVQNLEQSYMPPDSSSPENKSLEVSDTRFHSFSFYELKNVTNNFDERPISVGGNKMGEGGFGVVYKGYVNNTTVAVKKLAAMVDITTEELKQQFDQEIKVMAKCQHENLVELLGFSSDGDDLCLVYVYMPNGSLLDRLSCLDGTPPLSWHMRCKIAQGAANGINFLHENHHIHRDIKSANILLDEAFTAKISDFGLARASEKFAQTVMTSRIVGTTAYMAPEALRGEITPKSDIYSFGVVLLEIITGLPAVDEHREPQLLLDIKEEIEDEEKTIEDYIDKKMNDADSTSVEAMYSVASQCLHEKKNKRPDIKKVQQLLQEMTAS
Method: Compound dilution series (11-point, 3.16-fold dilutions in DMSO, columns 1-11 and 12-22) at 500× the final required concentrations were prepared in Labcyte LDV 384-well plates (cat. no. LP-0200) using a Labcyte Echo 550 Liquid Handler. The 500× solutions ranged from 5 mM to 0.5 μM (final assay concentration range 10 μM to 0.1 nM). Using the Echo, the 500× solutions were stamped into white, 384-well assay plates (Corning, cat. no. 3570) at 60 nL/well. […] C-terminal HiBiT-tagged Jurkat cells (polyclonal cell line or clone 8D5) were plated at 1×10^6 cells/mL, 30 μL/well (3×10^4 cells/well) in complete RPMI (10% FBS, 1% L-glutamine). Cells were incubated for 4 hrs at 32° C./6% CO2.
Following incubation, 30 uL of complete Nano-Glo HiBiT Lytic Detection Reagent (Nano-Glo HiBiT Lytic Buffer with 1:50 Nano-Glo HiBiT Lytic Substrate and 1:100 LgBiT Protein; Promega cat. no. N3040) was added. Cells were further incubated for 10 min at room temperature (RT). Luminescence units (LU) were read on an EnVision plate reader (Perkin Elmer, 0.1 sec per well). Percent IRAK4 remaining per sample was calculated as follows:
Using Graphpad Prism, % IRAK4 remaining values were plotted as a function of compound concentration.
Test [2] addresses T1, IRAK4. Put plainly: IRAK4 Biochemical HTRF Kinase Assay. The note with it: Table 5; multiple runs; read-out: IRAK4 HTRF biochemical: IC50. Put shortly: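 HTRF KinEASE STK S1 format measuring IRAK4 phosphorylation of biotinylated peptide; reaction solution of 5 μM STK-S1, 10 mM ATP, 10 mM MgCl2 added (stock, to 10 μl final), 90 min at ambient temperature, detection 60 min. IC50 from sixteen-point duplicate curves by non-linear regression.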
Target sequence in this assay (Q9NWZ3 whole entry, species assumed): as the sequence (Q9NWZ3 whole entry) above
A general note: TR-FRET usually uses a lanthanide donor and a delayed reading to cut background.

DC50, IC50 and Dmax data for ten compounds are collected here from US12528814B2, “Bifunctional degraders of interleukin-1 receptor-associated kinases and therapeutic use thereof” (NURIX THERAPEUTICS, INC., priority 2020, dated 2026).

By DC50 is commonly meant the concentration at which degradation of the target reaches its halfway point. One may read the IC50 as the concentration needed to halve the response being measured. For orientation: Dmax means the greatest extent of degradation seen.

In the case of `CNc1cc(-c2ccc3cc(C#N)cnn23)ncc1-c1nnc(C2CCC(NC(=O)C[C@H](NC(=O)[C@@H]3C[C@@H](O)CN3C(=O)[C@@H](NC(=O)C3(F)CC3)C(C)(C)C)c3ccccc3)CC2)s1` (stereo partly drawn) [Example 149, (2S,4R)—N—((S)-3-(((1r,4S)-4-(5-(6-(3-cyanopyrrolo[1,2-b]pyridazin-7-yl)-4-(methylamino)pyridin-3-yl)-1,3,4-thiadiazol-2-yl)cyclohexyl)amino)-3-oxo-1-phenylpropyl)-1-((S)-2-(1-fluorocyclopropane-1-carboxamido)-3,3-dimethylbutanoyl)-4-hydroxypyrrolidine-2-carboxamide], on IRAK4 [1], the 50% degradation concentration (DC50) was more than 9980 nM. In addition, the 50% inhibitory concentration (IC50) on IRAK4 [2] was 0.8 nM.

For `CNc1cc(-c2ccc3cc(C#N)cnn23)ncc1-c1nnc(N2CCCC3(CN(C(=O)C[C@H](NC(=O)[C@@H]4C[C@@H](O)CN4C(=O)[C@@H](NC(=O)C4(F)CC4)C(C)(C)C)c4ccc(-c5scnc5C)cc4)C3)C2)s1` [Example 150, (2S,4R)—N—((S)-3-(6-(5-(6-(3-cyanopyrrolo[1,2-b]pyridazin-7-yl)-4-(methylamino)pyridin-3-yl)-1,3,4-thiadiazol-2-yl)-2,6-diazaspiro[3.5]nonan-2-yl)-1-(4-(4-methylthiazol-5-yl)phenyl)-3-oxopropyl)-1-((S)-2-(1-fluorocyclopropane-1-carboxamido)-3,3-dimethylbutanoyl)-4-hydroxypyrrolidine-2-carboxamide], at IRAK4 [1], the Dmax was found to be 113% and the 50% degradation concentration (DC50) amounted to 441 nM. Further, the half-maximal inhibitory concentration (IC50) at IRAK4 [2] is 5.5 nM.

For the compound `CNc1cc(-c2ccc3cc(C#N)cnn23)ncc1-c1nnc([C@H]2CC[C@H](NC(=O)CCC(=O)N[C@H](C(=O)N3C[C@@H](O)C[C@H]3C(=O)NCc3ccc(-c4scnc4C)cc3)C(C)(C)C)CC2)s1` [Example 151, N1-((1r,4S)-4-(5-(6-(3-cyanopyrrolo[1,2-b]pyridazin-7-yl)-4-(methylamino)pyridin-3-yl)-1,3,4-thiadiazol-2-yl)cyclohexyl)-N4—((S)-1-((2S,4S)-4-hydroxy-2-((4-(4-methylthiazol-5-yl)benzyl)carbamoyl)pyrrolidin-1-yl)-3,3-dimethyl-1-oxobutan-2-yl)succinamide], at IRAK4 [1], the half-maximal degradation concentration (DC50) was more than 6980 nM. Also, the IC50 at IRAK4 [2] was 0.9 nM.

Regarding `CNc1cc(-c2ccc3cc(C#N)cnn23)ncc1-c1nnc([C@H]2CC[C@H](NC(=O)C3CCN(c4ccc5c(c4)C(=O)N(C4CCC(=O)NC4=O)C5=O)CC3)CC2)s1` (stereo partly shown) [Example 152, N-((1r,4r)-4-(5-(6-(3-cyanopyrrolo[1,2-b]pyridazin-7-yl)-4-(methylamino)pyridin-3-yl)-1,3,4-thiadiazol-2-yl)cyclohexyl)-1-(2-(2,6-dioxopiperidin-3-yl)-1,3-dioxoisoindolin-5-yl)piperidine-4-carboxamide], at IRAK4 [1], the Dmax was determined as 113% and the DC50 came out at 63 nM. The concentration for half-maximal inhibition (IC50) on IRAK4 [2] came to 0.9 nM.

On to `CNc1cc(-c2ccc3cc(C#N)cnn23)ncc1-c1nnc([C@H]2CC[C@H](NC[C@@H]3CCN(c4ccc5c(c4)C(=O)N(C4CCC(=O)NC4=O)C5=O)C3)CC2)s1` (stereo partly drawn) [Example 153, 7-(5-(5-((1S,4r)-4-((((3S)-1-(2-(2,6-dioxopiperidin-3-yl)-1,3-dioxoisoindolin-5-yl)pyrrolidin-3-yl)methyl)amino)cyclohexyl)-1,3,4-thiadiazol-2-yl)-4-(methylamino)pyridin-2-yl)pyrrolo[1,2-b]pyridazine-3-carbonitrile], for which, on IRAK4 [1], the Dmax was found to be 68% and the DC50 is 54.8 nM. Besides, the half-inhibitory concentration (IC50) at IRAK4 [2] came out at 0.5 nM.

On to `CNc1cc(-c2ccc3cc(C#N)cnn23)ncc1-c1nnc([C@H]2CC[C@H](NC(=O)CC(C)(C)C(=O)N[C@H](C(=O)N3C[C@H](O)C[C@H]3C(=O)N[C@@H](C)c3ccc(-c4scnc4C)cc3)C(C)(C)C)CC2)s1` [Example 154, N4-((1r,4S)-4-(5-(6-(3-cyanopyrrolo[1,2-b]pyridazin-7-yl)-4-(methylamino)pyridin-3-yl)-1,3,4-thiadiazol-2-yl)cyclohexyl)-N1—((S)-1-((2S,4R)-4-hydroxy-2-(((S)-1-(4-(4-methylthiazol-5-yl)phenyl)ethyl)carbamoyl)pyrrolidin-1-yl)-3,3-dimethyl-1-oxobutan-2-yl)-2,2-dimethylsuccinamide], for which, on IRAK4 [1], the Dmax is 68% and the DC50 amounted to 544 nM. The IC50 at IRAK4 [2] amounted to 2.8 nM.

Consider `CNc1cc(-c2ccc3cc(C#N)cnn23)ncc1-c1nnc(C23CCC(NC(=O)CC(C)(C)C(=O)N[C@H](C(=O)N4C[C@H](O)C[C@H]4C(=O)N[C@@H](C)c4ccc(-c5scnc5C)cc4)C(C)(C)C)(CC2)CC3)s1` [Example 155, N4-(4-(5-(6-(3-cyanopyrrolo[1,2-b]pyridazin-7-yl)-4-(methylamino)pyridin-3-yl)-1,3,4-thiadiazol-2-yl)bicyclo[2.2.2]octan-1-yl)-N1—((S)-1-((2S,4R)-4-hydroxy-2-(((S)-1-(4-(4-methylthiazol-5-yl)phenyl)ethyl)carbamoyl)pyrrolidin-1-yl)-3,3-dimethyl-1-oxobutan-2-yl)-2,2-dimethylsuccinamide], for which, on IRAK4 [1], the Dmax worked out at 90% and the DC50 was found to be 519 nM. Moreover, the half-maximal inhibitory concentration (IC50) on IRAK4 [2] came out at 2.4 nM.

Turning to `CNc1cc(-c2ccc3cc(C#N)cnn23)ncc1-c1nnc(N2CCN(C(=O)N3CCN(Cc4ccc5c(c4)C(=O)N(C4CCC(=O)NC4=O)C5=O)CC3)CC2)s1` (stereo not shown) [Example 156, 7-(5-(5-(4-(4-((2-(2,6-dioxopiperidin-3-yl)-1,3-dioxoisoindolin-5-yl)methyl)piperazine-1-carbonyl)piperazin-1-yl)-1,3,4-thiadiazol-2-yl)-4-(methylamino)pyridin-2-yl)pyrrolo[1,2-b]pyridazine-3-carbonitrile], at IRAK4 [1], the Dmax came out at 109% and the half-maximal degradation concentration (DC50) came to 15.5 nM. Also, the IC50 on IRAK4 [2] was 0.8 nM.

As to `CNc1cc(-c2ccc3cc(C#N)cnn23)ncc1-c1nnc(N2CCC(C(=O)N3CCN(Cc4ccc5c(c4)C(=O)N(C4CCC(=O)NC4=O)C5=O)CC3)CC2)s1` (stereo not shown) [Example 157, 7-(5-(5-(4-(4-((2-(2,6-dioxopiperidin-3-yl)-1,3-dioxoisoindolin-5-yl)methyl)piperazine-1-carbonyl)piperidin-1-yl)-1,3,4-thiadiazol-2-yl)-4-(methylamino)pyridin-2-yl)pyrrolo[1,2-b]pyridazine-3-carbonitrile], on IRAK4 [1], the Dmax is 104% and the DC50 turned out to be 17.6 nM. For the same compound, the IC50 at IRAK4 [2] stood at 1 nM.

As for `CNc1cc(-c2ccc3cc(C#N)cnn23)ncc1-c1nnc(N2CCC(NC(=O)CCC(=O)N[C@H](C(=O)N3C[C@H](O)C[C@H]3C(=O)N[C@@H](C)c3ccc(-c4scnc4C)cc3)C(C)(C)C)CC2)s1` [Example 158, N1-(1-(5-(6-(3-cyanopyrrolo[1,2-b]pyridazin-7-yl)-4-(methylamino)pyridin-3-yl)-1,3,4-thiadiazol-2-yl)piperidin-4-yl)-N4—((S)-1-((2S,4R)-4-hydroxy-2-(((S)-1-(4-(4-methylthiazol-5-yl)phenyl)ethyl)carbamoyl)pyrrolidin-1-yl)-3,3-dimethyl-1-oxobutan-2-yl)succinamide], on IRAK4 [1], the Dmax is 74% and the DC50 is 1210 nM. Besides, the half-inhibitory concentration (IC50) on IRAK4 [2] stood at 1.6 nM.
